Like-named read-outs stand apart in the source and are kept apart here.
Assay: logP determination by HPLC (formic acid method)
Format: physicochemical
Details: for chromatographic logP: read-out: logP (HCOOH)
Protocol: 1) Description of the method for determining the logP values (formic acid method)
The logP values given in the table were determined in accordance with EEC Directive 79/831 Annex V.A8 by HPLC (High Performance Liquid Chromatography) on a reversed-phase column (C18). Temperature: 55° C.
Mobile phases for the determination in the acidic range (pH 3.4):
Mobile phase A: Acetonitrile+1 ml of formic acid/litre. Mobile phase B: water+0.9 ml of formic acid/litre.
Gradient: from 10% mobile phase A/90% mobile phase B to 95% mobile phase A/5% mobile phase B in 4.25 min.
Calibration was carried out using unbranched alkan-2-ones (having 3 to 16 carbon atoms) with known logP values (determination of the logP values by the retention times using linear interpolation between two successive alkanones). The lambda max values were determined in the maxima of the chromatographic signals using the UV spectra from 200 nm to 400 nm.

[1] = reversed-phase HPLC column (C18), pH 3.4, values printed in the text of the preparation examples, formic acid method
[2] = pH 3.4, values given in the preparation examples, formic acid method
[3] = reversed-phase HPLC column (C18), pH 3.4, HPLC on reversed-phase column (C18), acidic range (pH 3.4), 55° C.

Row | Structure (SMILES) | chromatographic logP [3] | further results
1 | CC(=O)c1cc(-c2cccnc2)nn1C |  | chromatographic logP [1]: 0.61
2 | CN(C)/C=C/C(=O)c1cc(-c2cccnc2)nn1C |  | chromatographic logP [1]: 0.6
3 | COC(=O)c1cc(-c2cccnc2)nn1C (single isomer, unassigned) [drawing 76 isomer 1] |  | chromatographic logP [2]: 0.84
4 | COC(=O)c1cc(-c2cccnc2)n(C)n1 (single isomer, unassigned) [drawing 76 isomer 2] |  | chromatographic logP [2]: 0.77
5 | CC(=O)c1sc(-c2cccnc2)nc1C [1-(4-Methyl-2-pyridin-3-ylthiazol-5-yl)ethanone] |  | logP (HCOOH) (values given in the preparation examples, formic acid method): 1.5
6 | CC(=O)c1nnc(-c2cccnc2)s1 [1-(5-Pyridin-3-yl-[1,3,4]thiadiazol-2-yl)ethanone] |  | chromatographic logP [1]: 1.16
7 | Cc1nc(-c2cccnc2)sc1-c1cccc(Cl)n1 [2-Chloro-6-(4-methyl-2-pyridin-3-ylthiazol-5-yl)pyridine] |  | chromatographic logP [1]: 2.66
8 | CC(=O)c1sc(-c2cccnc2)nc1C [3-(5-Acetyl-4-methylthiazol-2-yl)pyridinium chloride] |  | chromatographic logP [1]: 1.48
9 | Cc1nc(-c2cccnc2)sc1Br [3-(5-Bromo-4-methylthiazol-2-yl)pyridine] |  | chromatographic logP [1]: 2.3
10 | Brc1cccc(C2=NOCCO2)n1 [3-(6-Bromopyridin-2-yl)-5,6-dihydro-[1,4,2]dioxazine] |  | chromatographic logP [1]: 1.37
11 | Cc1nc(-c2cccnc2)sc1C(=O)/C=C/N(C)C [3-Dimethylamino-1-(4-methyl-2-pyridin-3-ylthiazol-5-yl)propenone] |  | chromatographic logP [1]: 1.35
12 | c1cncc(-c2nccs2)c1 [3-Thiazol-2-ylpyridine] |  | chromatographic logP [1]: 0.62
13 | c1cncc(-c2nncs2)c1 [3-[1,3,4]Thiadiazol-2-ylpyridine] |  | chromatographic logP [1]: 0.15
14 | Cc1nc(-c2cccnc2)sc1-c1cc[nH]n1 [3-[4-Methyl-5-(1H-pyrazol-3-yl)thiazol-2-yl]pyridine] |  | chromatographic logP [1]: 1.31
15 | Cc1nc(-c2cccnc2)sc1C(=O)NN(CCO)c1ncccn1 [4-Methyl-2-pyridin-3-ylthiazole-5-carboxylic acid N-(hydroxyethyl)-N-pyrimidin-2-ylhydrazide] |  | chromatographic logP [1]: 1.08
16 | Cc1nc(-c2cccnc2)sc1-c1cccc(C#N)n1 [6-(4-Methyl-2-pyridin-3-ylthiazol-5-yl)pyridine-2-carbonitrile] |  | chromatographic logP [1]: 2.11
17 | Cc1nc(-c2cccnc2)sc1-c1cccc(C(N)=S)n1 [6-(4-Methyl-2-pyridin-3-ylthiazol-5-yl)pyridine-2-carbothioamide] |  | chromatographic logP [1]: 2.13
18 | O=C(NO)c1cccc(Br)n1 [6-Bromopyridine-2-carboxylic acid hydroxyamide] |  | chromatographic logP [1]: 0.69
19 | CN(C)/C=C/C(=O)c1nnc(-c2cccnc2)s1 [(3-Dimethylamino-1-(5-pyridin-3-yl-[1,3,4]thiadiazol-2-yl)propenone] |  | chromatographic logP [1]: 1.05
20 | CCOC(=O)C(=O)NNC(=O)c1cccnc1 [Ethyl oxo-[N′-(pyridin-3-carbonyl)hydrazino]acetate] |  | chromatographic logP [1]: -0.13
21 | Cc1cccc(-c2csc(-c3sc(-c4cccnc4)nc3C)n2)n1 [compound 173] | 2.66 | 
22 | CNc1nc(-c2sc(-c3cccnc3)nc2C)cs1 [compound 174] | 1.76 | 
23 | Cc1nc(-c2cccnc2)sc1-c1nc(C(=O)NCC(F)(F)F)cs1 [compound 175] | 2.23 | 
24 | COc1cc(OC)nc(-c2nc(-c3sc(-c4cccnc4)nc3C)cs2)n1 [compound 176] | 3.21 | 

Row | Structure (SMILES) | chromatographic logP [3] | further results
25 | Cc1nc(-c2cncnc2)sc1-c1ccnc(-c2ncccn2)n1 [compound 179] | 1.06 | 
26 | Cc1cc(-c2sc(-c3cncc(F)c3)nc2C)nc(-c2ncccn2)n1 [compound 185] | 1.68 | 
27 | Cc1nc(-c2cncc(F)c2)sc1-c1ccnc(-c2ncccn2)n1 [compound 186] | 1.63 | 
28 | CNc1nccc(-c2sc(-c3cccnc3)nc2C)n1 [compound 193] | 1.41 | 
29 | Cc1nc(-c2cccnc2)sc1-c1ccnc(N(C)C)n1 [compound 194] | 2.15 | 
30 | Cc1nc(-c2cccnc2)sc1-c1ccn(-c2nc(Cl)ns2)n1 [compound 195] | 3.76 | 
31 | COCCNC(=S)n1ccc(-c2sc(-c3cccnc3)nc2C)n1 [compound 196] | 3.01 | 
32 | Cc1cc(C)nc(-c2nc(-c3sc(-c4cccnc4)nc3C)cs2)n1 [compound 197] | 2.58 | 
33 | c1cncc(-c2ncc(-c3cccc(C4OCCCO4)n3)s2)c1 [compound 203] | 1.99 | 
34 | O=C1CCCCN1c1cccc(-c2cnc(-c3cccnc3)s2)n1 [compound 204] | 1.87 | 
35 | c1cncc(-c2ncc(-c3cccc(C4OCCO4)n3)s2)c1 [compound 205] | 1.82 | 
36 | CN(C)C(=O)c1cccc(-c2nnc(-c3cccnc3)s2)n1 [compound 221] | 1.34 | 
37 | CON(C)C(=O)c1csc(-c2sc(-c3cccnc3)nc2C)n1 [compound 229] | 1.78 | 
38 | Cc1nc(-c2cccnc2)sc1-c1nc(C(=O)NC(C)C2CC2)cs1 (stereo not drawn) [compound 233] | 2.69 | 
39 | Cc1nc(-c2cccnc2)sc1-c1nc(C(=O)NC(C)(C)C)cs1 [compound 234] | 2.93 | 
40 | Cc1nc(-c2cccnc2)sc1-c1nc(C(=O)NCC(F)(F)C(F)F)cs1 [compound 235] | 2.38 | 
41 | Cc1nc(-c2cccnc2)sc1-c1nc(C(=O)N2CCCCC2)cs1 [compound 236] | 2.38 | 
42 | Cc1nc(-c2cccnc2)sc1-c1nc(C(=O)N2CCCC2)cs1 [compound 237] | 2.05 | 
43 | Cc1nc(-c2cccnc2)sc1-c1nc(C(=O)N(C)CC(F)(F)F)cs1 [compound 238] | 2.53 | 
44 | O=C(NCC(F)(F)F)c1cccc(-c2nnc(-c3cccnc3)s2)n1 [compound 241] | 2.07 | 
45 | Cc1nc(-c2cccnc2)sc1-c1nc(C(=O)N2CCCO2)cs1 [compound 242] | 1.61 | 
46 | Cc1nc(-c2cccnc2)sc1-c1nc(C(=O)N(C)C)cs1 [compound 243] | 1.67 | 
47 | Cc1nc(-c2cccnc2)sc1-c1nc(C(=O)N2CCOCC2)cs1 [compound 247] | 1.66 | 

Continued, in another order:

Row | chromatographic logP [3] | Structure (SMILES) | further results
48 | 2.53 | Cc1nc(-c2cccnc2)sc1-c1nc(-c2ccccn2)cs1 [compound 172] | 
49 | 2.19 | Cc1nc(-c2cccnc2)sc1-c1csc(-c2cccnc2)n1 [compound 177] | 
50 | 2.43 | Clc1cccc(-c2cnc(-c3cccnc3)s2)n1 [compound 178] | 
51 | 1.43 | c1cncc(-c2ncc(-c3cccc(-c4nccnn4)n3)s2)c1 [compound 180] | 
52 | 1.82 | CN1CCOC(c2cccc(-c3cnc(-c4cccnc4)s3)n2)=N1 [compound 181] | 
53 | 1.74 | c1cncc(-c2ncc(-c3cccc(-c4ncon4)n3)s2)c1 [compound 182] | 
54 | 1.24 | c1cncc(-c2ncc(-c3cccc(-c4nc[nH]n4)n3)s2)c1 [compound 183] | 
55 | 1.44 | CS(=O)(=O)c1cccc(-c2cnc(-c3cccnc3)s2)n1 [compound 184] | 
56 | 2.53 | c1cncc(-c2ncc(-c3cccc(-n4cccn4)n3)s2)c1 [compound 187] | 
57 | 3.08 | Cc1cnn(-c2cccc(-c3cnc(-c4cccnc4)s3)n2)c1 [compound 188] | 
58 | 2.85 | Cc1ccn(-c2cccc(-c3cnc(-c4cccnc4)s3)n2)n1 [compound 189] | 
59 | 1.67 | Cn1nc(-c2cccnc2)cc1-c1cccc(Br)n1 [compound 190] | 
60 | 1.12 | Cn1nc(-c2cccnc2)cc1-c1cccc(-c2ncccn2)n1 [compound 192] | 
61 | 0.93 | c1cncc(-c2ncc(-c3cccc(-n4ccnc4)n3)s2)c1 [compound 199] | 
62 | 2.83 | CN(C)c1cccc(-c2cnc(-c3cccnc3)s2)n1 [compound 200] | 
63 | 0.89 | Cc1nccn1-c1cccc(-c2cnc(-c3cccnc3)s2)n1 [compound 201] | 

Row | chromatographic logP [3] | Structure (SMILES) | further results
64 | 3.13 | c1cncc(-c2ncc(-c3cccc(-n4cccc4)n3)s2)c1 [compound 202] | 
65 | 2.11 | O=C1CCCN1c1cccc(-c2cnc(-c3cccnc3)s2)n1 [compound 206] | 
66 | 1.43 | c1cncc(-c2ncc(-c3cnc(-c4cccnc4)s3)s2)c1 [compound 217] | 
67 | 0.89 | Cn1nc(-c2cccnc2)cc1-c1cccnc1 [compound 218] | 
68 | 0.92 | Nc1cccc(-c2cnc(-c3cccnc3)s2)n1 [compound 219] | 
69 | 2.46 | CC(F)(F)c1ccc(-c2cnc(-c3cccnc3)s2)nc1 [compound 223] | 
70 | 2.77 | CC(F)(F)c1cccc(-c2cnc(-c3cccnc3)s2)n1 [compound 224] | 
71 | 2.08 | COC(OC)c1cccc(-c2cnc(-c3cccnc3)s2)n1 [compound 225] | 
72 | 0.98 | Cn1nc(-c2cccnc2)cc1-c1cccnc1Cl [compound 226] | 
73 | 0.89 | Cn1nc(-c2cccnc2)cc1-c1cncc(C#N)c1 [compound 227] | 
74 | 0.89 | Cn1nc(-c2cccnc2)cc1-c1cncc(F)c1 [compound 228] | 
75 | 1.77 | COC(=O)c1cccc(-c2cnc(-c3cccnc3)s2)n1 [compound 244] | 
76 | 1.46 | CCOc1ccc(-c2cc(-c3cccnc3)nn2C)cn1 [compound 245] | 
77 | 1.14 | COc1ccc(-c2cc(-c3cccnc3)nn2C)cn1 [compound 246] | 
78 | 1.54 | CCN(C)C(=O)c1cccc(-c2nnc(-c3cccnc3)s2)n1 [compound 248] | 

Source: patent US9451775B2, “Heterocyclic compounds as pesticides” (Bayer Intellectual Property GmbH, priority 2008, dated 2016)
